# Experimental data as given in PubChem BioAssay (NCI).
#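 Briefly, cells in 96-well plates were exposed to five compound concentrations for 48 h, and endpoints were estimated by linear interpolation. TGI is the concentration that stops growth completely.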 Residues, ends and D or L forms follow the SMILES beside them. *: point of attachment. Boc = CC(C)(C)OC(=O)*; OBn = c1ccc(CO*)cc1
# How the values were obtained:
# Assay in all cases: NCI tumour cell line growth inhibition, 48 h
# MDA-MB-435 = test system: MDA-MB-435
# A498 renal = test system: A498 renal
# BT-549 breast = test system: BT-549 breast
# SK-MEL-5 melanoma = test system: SK-MEL-5 melanoma
# MALME-3M melanoma = test system: MALME-3M melanoma
# SNB-19 CNS = test system: SNB-19 CNS
# HL-60(TB) leukemia = test system: HL-60(TB) leukemia
# KM12 colon = test system: KM12 colon
# T-47D breast = test system: T-47D breast
# COLO 205 colon = test system: COLO 205 colon
# LOX IMVI melanoma = test system: LOX IMVI melanoma
# U251 CNS = test system: U251 CNS
# SF-539 CNS = test system: SF-539 CNS
# MCF7 breast = test system: MCF7 breast
# OVCAR-3 ovarian = test system: OVCAR-3 ovarian
# SNB-75 CNS = test system: SNB-75 CNS
# SK-MEL-28 melanoma = test system: SK-MEL-28 melanoma
# K-562 leukemia = test system: K-562 leukemia
# UACC-257 melanoma = test system: UACC-257 melanoma
# OVCAR-5 ovarian = test system: OVCAR-5 ovarian
# NCI-H23 lung = test system: NCI-H23 lung
# CAKI-1 renal = test system: CAKI-1 renal
# HCC-2998 colon = test system: HCC-2998 colon
# UO-31 renal = test system: UO-31 renal
# NCI-H226 lung = test system: NCI-H226 lung
# SN12C renal = test system: SN12C renal
# UACC-62 melanoma = test system: UACC-62 melanoma
# SK-OV-3 ovarian = test system: SK-OV-3 ovarian
# HCT-15 colon = test system: HCT-15 colon
# RXF 393 renal = test system: RXF 393 renal
# ACHN renal = test system: ACHN renal
# SW-620 colon = test system: SW-620 colon
# NCI-H460 lung = test system: NCI-H460 lung
# HCT-116 colon = test system: HCT-116 colon
# A549 NSCLC = test system: A549 NSCLC
# MOLT-4 leukemia = test system: MOLT-4 leukemia
# SR leukemia = test system: SR leukemia
# EKVX NSCLC = test system: EKVX NSCLC
# SK-MEL-2 melanoma = test system: SK-MEL-2 melanoma
# MDA-N = test system: MDA-N
# NCI-H522 lung = test system: NCI-H522 lung
# OVCAR-8 ovarian = test system: OVCAR-8 ovarian
# SF-268 CNS = test system: SF-268 CNS
# TK-10 renal = test system: TK-10 renal
# SF-295 CNS = test system: SF-295 CNS
# CCRF-CEM leukemia = test system: CCRF-CEM leukemia
# PC-3 prostate = test system: PC-3 prostate
# DU-145 prostate = test system: DU-145 prostate
# HOP-62 NSCLC = test system: HOP-62 NSCLC
# HT29 colon = test system: HT29 colon
# 786-0 renal = test system: 786-0 renal
# HOP-92 NSCLC = test system: HOP-92 NSCLC
# HS 578T breast = test system: HS 578T breast
# IGROV1 ovarian = test system: IGROV1 ovarian
# OVCAR-4 ovarian = test system: OVCAR-4 ovarian
# M14 melanoma = test system: M14 melanoma
# MDA-MB-231 breast = test system: MDA-MB-231 breast
# NCI/ADR-RES ovarian = test system: NCI/ADR-RES ovarian
compound,measurement,setting,value
CC[C@]12C=CCN3CC[C@@]4(c5cc(N=O)c(OC)cc5N(C)[C@H]4[C@@](O)(C(=O)NC(Cc4c[nH]c5ccccc45)C(=O)OC)[C@@H]1O)[C@@H]32 (stereo partly specified),TGI,MDA-MB-435,33.3 µM
same,TGI,A498 renal,> 100 µM
same,TGI,BT-549 breast,29.8 µM
same,TGI,SK-MEL-5 melanoma,28 µM
same,TGI,MALME-3M melanoma,34.8 µM
same,TGI,SNB-19 CNS,71.3 µM
same,TGI,HL-60(TB) leukemia,14.7 µM
same,TGI,KM12 colon,26.1 µM
same,TGI,T-47D breast,32 µM
same,TGI,COLO 205 colon,29.2 µM
same,TGI,LOX IMVI melanoma,47 µM
same,TGI,U251 CNS,21.7 µM
same,TGI,SF-539 CNS,30.5 µM
same,TGI,MCF7 breast,35.2 µM
same,TGI,OVCAR-3 ovarian,28.6 µM
same,TGI,SNB-75 CNS,29.4 µM
same,TGI,SK-MEL-28 melanoma,86.8 µM
same,TGI,K-562 leukemia,31.4 µM
same,TGI,UACC-257 melanoma,29.6 µM
same,TGI,OVCAR-5 ovarian,43.1 µM
same,TGI,NCI-H23 lung,38.5 µM
same,TGI,CAKI-1 renal,31.9 µM
same,TGI,HCC-2998 colon,29 µM
same,TGI,UO-31 renal,45.3 µM
same,TGI,NCI-H226 lung,52.4 µM
same,TGI,SN12C renal,71.5 µM
same,TGI,UACC-62 melanoma,29.6 µM
same,TGI,SK-OV-3 ovarian,38.9 µM
same,TGI,HCT-15 colon,44.7 µM
same,TGI,RXF 393 renal,26.9 µM
same,TGI,ACHN renal,35.5 µM
same,TGI,SW-620 colon,29.7 µM
same,TGI,NCI-H460 lung,38.7 µM
same,TGI,HCT-116 colon,28.3 µM
same,TGI,A549 NSCLC,> 100 µM
same,TGI,MOLT-4 leukemia,27.9 µM
same,TGI,SR leukemia,54.7 µM
same,TGI,EKVX NSCLC,52.2 µM
same,TGI,SK-MEL-2 melanoma,34.1 µM
same,TGI,MDA-N,46.6 µM
same,TGI,NCI-H522 lung,6.75 µM
same,TGI,OVCAR-8 ovarian,42.6 µM
same,TGI,SF-268 CNS,> 100 µM
same,TGI,TK-10 renal,31.7 µM
same,TGI,SF-295 CNS,32.7 µM
same,TGI,CCRF-CEM leukemia,24.3 µM
same,TGI,PC-3 prostate,23.9 µM
same,TGI,DU-145 prostate,30.9 µM
same,TGI,HOP-62 NSCLC,34.6 µM
same,TGI,HT29 colon,29.3 µM
same,TGI,786-0 renal,> 100 µM
same,TGI,HOP-92 NSCLC,28.8 µM
same,TGI,HS 578T breast,> 100 µM
same,TGI,IGROV1 ovarian,34.9 µM
same,TGI,OVCAR-4 ovarian,29.2 µM
same,TGI,M14 melanoma,41.1 µM
same,TGI,MDA-MB-231 breast,34.7 µM
same,TGI,NCI/ADR-RES ovarian,> 100 µM
CC(C)CC(NC(=O)OC(C)(C)C)C(=O)NC(CC(=O)OCc1ccccc1)C(N)=O (stereo not drawn) (Boc-Leu-Asp(OBn)-NH2; configuration not given here),TGI,MDA-MB-435,> 100 µM
same,TGI,A498 renal,> 100 µM
same,TGI,BT-549 breast,> 100 µM
same,TGI,SK-MEL-5 melanoma,> 100 µM
same,TGI,MALME-3M melanoma,> 100 µM
same,TGI,SNB-19 CNS,> 100 µM
same,TGI,KM12 colon,> 100 µM
same,TGI,T-47D breast,> 100 µM
same,TGI,COLO 205 colon,> 100 µM
same,TGI,LOX IMVI melanoma,> 100 µM
same,TGI,U251 CNS,> 100 µM
same,TGI,SF-539 CNS,> 100 µM
same,TGI,MCF7 breast,> 100 µM
same,TGI,OVCAR-3 ovarian,> 100 µM
same,TGI,SNB-75 CNS,> 100 µM
same,TGI,SK-MEL-28 melanoma,> 100 µM
same,TGI,K-562 leukemia,> 100 µM
same,TGI,UACC-257 melanoma,> 100 µM
same,TGI,OVCAR-5 ovarian,> 100 µM
same,TGI,NCI-H23 lung,> 100 µM
same,TGI,CAKI-1 renal,> 100 µM
same,TGI,UO-31 renal,> 100 µM
same,TGI,NCI-H226 lung,> 100 µM
same,TGI,SN12C renal,> 100 µM
same,TGI,UACC-62 melanoma,> 100 µM
same,TGI,SK-OV-3 ovarian,> 100 µM
same,TGI,HCT-15 colon,> 100 µM
same,TGI,RXF 393 renal,> 100 µM
same,TGI,ACHN renal,> 100 µM
same,TGI,SW-620 colon,> 100 µM
same,TGI,HCT-116 colon,> 100 µM
same,TGI,A549 NSCLC,> 100 µM
same,TGI,SR leukemia,> 100 µM
same,TGI,EKVX NSCLC,> 100 µM
same,TGI,SK-MEL-2 melanoma,> 100 µM
same,TGI,MDA-N,> 100 µM
same,TGI,NCI-H522 lung,> 100 µM
same,TGI,OVCAR-8 ovarian,> 100 µM
same,TGI,SF-268 CNS,> 100 µM
same,TGI,TK-10 renal,> 100 µM
same,TGI,SF-295 CNS,> 100 µM
same,TGI,PC-3 prostate,> 100 µM
same,TGI,DU-145 prostate,> 100 µM
same,TGI,HT29 colon,> 100 µM
same,TGI,786-0 renal,> 100 µM
same,TGI,HOP-92 NSCLC,> 100 µM
same,TGI,HS 578T breast,> 100 µM
same,TGI,IGROV1 ovarian,> 100 µM
same,TGI,OVCAR-4 ovarian,> 100 µM
same,TGI,M14 melanoma,> 100 µM
same,TGI,MDA-MB-231 breast,> 100 µM
same,TGI,NCI/ADR-RES ovarian,> 100 µM
O=C1C(Cl)=C(N2C(=O)CCC2=O)C(=O)c2ccccc21,TGI,MDA-MB-435,44 µM
same,TGI,A498 renal,> 100 µM
same,TGI,BT-549 breast,37.3 µM
same,TGI,SK-MEL-5 melanoma,36.7 µM
same,TGI,SNB-19 CNS,> 100 µM
same,TGI,HL-60(TB) leukemia,6.73 µM
same,TGI,KM12 colon,> 100 µM
same,TGI,T-47D breast,> 100 µM
same,TGI,COLO 205 colon,32.8 µM
same,TGI,LOX IMVI melanoma,86.4 µM
same,TGI,U251 CNS,63.3 µM
same,TGI,SF-539 CNS,> 100 µM
same,TGI,MCF7 breast,33.7 µM
same,TGI,OVCAR-3 ovarian,34.3 µM
same,TGI,SNB-75 CNS,> 100 µM
same,TGI,SK-MEL-28 melanoma,48 µM
same,TGI,K-562 leukemia,17.1 µM
same,TGI,UACC-257 melanoma,57.5 µM
same,TGI,OVCAR-5 ovarian,49.7 µM
same,TGI,NCI-H23 lung,79.8 µM
same,TGI,CAKI-1 renal,38.1 µM
same,TGI,HCC-2998 colon,60.3 µM
same,TGI,UO-31 renal,34.4 µM
same,TGI,NCI-H226 lung,> 100 µM
same,TGI,SN12C renal,33.6 µM
same,TGI,UACC-62 melanoma,> 100 µM
same,TGI,SK-OV-3 ovarian,> 100 µM
same,TGI,HCT-15 colon,27.2 µM
same,TGI,RXF 393 renal,45.7 µM
same,TGI,ACHN renal,29.1 µM
same,TGI,SW-620 colon,56.9 µM
same,TGI,NCI-H460 lung,> 100 µM
same,TGI,HCT-116 colon,49.7 µM
same,TGI,A549 NSCLC,> 100 µM
same,TGI,MOLT-4 leukemia,> 100 µM
same,TGI,SR leukemia,82.5 µM
same,TGI,EKVX NSCLC,> 100 µM
same,TGI,SK-MEL-2 melanoma,> 100 µM
same,TGI,MDA-N,35 µM
same,TGI,NCI-H522 lung,59.6 µM
same,TGI,OVCAR-8 ovarian,> 100 µM
same,TGI,SF-268 CNS,> 100 µM
same,TGI,TK-10 renal,> 100 µM
same,TGI,SF-295 CNS,> 100 µM
same,TGI,CCRF-CEM leukemia,21.8 µM
same,TGI,PC-3 prostate,> 100 µM
same,TGI,DU-145 prostate,95 µM
same,TGI,HOP-62 NSCLC,> 100 µM
same,TGI,HT29 colon,> 100 µM
same,TGI,786-0 renal,37.9 µM
same,TGI,HOP-92 NSCLC,26.6 µM
same,TGI,HS 578T breast,> 100 µM
same,TGI,IGROV1 ovarian,> 100 µM
same,TGI,M14 melanoma,> 100 µM
same,TGI,MDA-MB-231 breast,> 100 µM
same,TGI,NCI/ADR-RES ovarian,> 100 µM
